Test results published in publication PMC5823691 (Journal of medicinal chemistry, 2017).
Values after ≈ are worked out from the molar mass of the structure shown.

Assays:
[1] = system: Mac-1 (αMβ2)–CD40L interaction; experiment: cell-free Mac-1–CD40L binding inhibition assay; parameters: species or system human; details: compared with CD40–CD40L activity; Figure S1
[2] = molecular target: human CD40–CD40L interaction (Homo sapiens, UniProt P29965)
[3] = system: THP-1 human myeloid cells; details: THP-1 cells, 0.5 µg/mL MegaCD40L, 48 h; Figure S2
[4] = system: Salmonella typhimurium TA-100; experiment: Muta-Chromplate mutagenicity assay; details: S. typhimurium TA-100; concentrations tested of up to 500 µM; Figure S4
[5] = system: Balb/c skin allografts in C57BL/6 mice; details: two week treatment, 30 mg/kg daily s.c. in 20% HPβCD
water solubility = format: physicochemical; details: distilled water, Estimated water solubility, saturated solution
[6] = system: THP-1 human myeloid cells; experiment: MTT cytotoxicity assay; format: cell-based; details: THP-1 cells, 48 h; concentrations of up to 100 and 200 µM; Figure S3

human CD40–CD40L interaction, sequence (P29965 113-261 limits assumed): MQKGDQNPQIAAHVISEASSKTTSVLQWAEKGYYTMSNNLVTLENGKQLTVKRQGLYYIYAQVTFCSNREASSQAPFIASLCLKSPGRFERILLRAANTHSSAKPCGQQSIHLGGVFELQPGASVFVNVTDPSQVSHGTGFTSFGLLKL

| Structure (SMILES) | increase of inhibitory potency in Mac-1–CD40L assay [1] | effect on CD40L-induced MHC-II upregulation [3] | genotoxic potential (Ames test) [4] | also measured |
| --- | --- | --- | --- | --- |
| Nc1ccc(C(=O)Nc2ccc(-c3ccc(C(=O)Nc4cccc5cccc(S(=O)(=O)O)c45)cc3)cc2)cc1 [Compound 8, 8-(4’-(4-Aminobenzamido)biphenyl-4-ylcarboxamido)naphthalene-1-sulfonic acid] | about 10 fold | – | – | – |
| CSCC[C@H](NC(=O)[C@@H](NC(=O)[C@H](Cc1ccc(O)cc1)NC(=O)[C@H](Cc1ccc(O)cc1)NC(=O)CNC(=O)[C@H](CCCCN)NC(=O)[C@H](CCCCN)NC(=O)[C@H](C)NC(=O)[C@H](Cc1c[nH]c2ccccc12)NC(=O)[C@H](CCC(N)=O)NC(=O)[C@H](CC(C)C)NC(=O)[C@@H](N)C(C)C)[C@@H](C)O)C(=O)N[C@@H](CCCCN)C(=O)N[C@@H](CO)C(=O)N[C@@H](CC(N)=O)C(=O)O [mouse KGYY15] | – | – | – | CD40 IC50 ([2]; cell-free, soluble CD40L binding to plate-coated CD40, Hill slope 1 fit): no inhibitory activity |
| O=C(Nc1ccc(-c2ccc(C(=O)Nc3cccc4cccc(S(=O)(=O)O)c34)cc2)cc1)c1ccc([N+](=O)[O-])cc1 [Compound 6, 8-(4’-(4-Nitrobenzamido)biphenyl-4-ylcarboxamido)naphthalene-1-sulfonic acid] | – | concentration-dependently inhibited | neither of these compounds was found to have genotoxic potential | – |
| O=C(Nc1ccc2c(O)c(/N=N/c3ccc(N=Nc4ccc(S(=O)(=O)O)cc4)cc3S(=O)(=O)O)c(S(=O)(=O)O)cc2c1)Nc1ccc2c(O)c(/N=N/c3ccc(N=Nc4ccc(S(=O)(=O)O)cc4)cc3S(=O)(=O)O)c(S(=O)(=O)O)cc2c1 (stereo in doubt) [Compound 1, direct red 80, reference compound] | about 10 fold | – | – | ligand efficiency (LE) ([2]; binding free energy per non-hydrogen atom): 0.4 kJ/atom |
| COC(=O)c1ccc(C(=O)Nc2ccc(-c3ccc(C(=O)Nc4cccc5cccc(S(=O)(=O)O)c45)cc3)cc2)cc1 [Compound 10, 8-(4’-(4-(Methoxycarbonyl)benzamido)biphenyl-4-ylcarboxamido)naphthalene-1-sulfonic acid] | – | concentration-dependently inhibited | neither of these compounds was found to have genotoxic potential | toxicity during chronic treatment [5]: no signs of toxicity; solubility (water solubility): 164 µg/mL (≈ 282 µM) |
| O=C(Nc1ccc(-c2ccc(C(=O)Nc3ccc(C(=O)O)c4ccccc34)cc2)cc1)c1ccc([N+](=O)[O-])cc1 [Compound 11, 4-(4’-(4-Nitrobenzamido)biphenyl-4-ylcarboxamido)-1-naphthoic acid] | – | concentration-dependently inhibited | – | cytotoxicity (MTT, viability) [6]: significant effect on viability at 100 µM |
